What all share (format): in vivo
Experiment [1] concerns brown planthopper (Nilaparvata lugens). In words: Nilaparvata lugens spray test. To be noted: 96 h, after 4 days, rice plants; for mortality at 500 g/ha: application rate 500 g/ha. The procedure: Nilaparvata lugens—Spray Test
To produce a suitable preparation of active compound, 1 part by weight of active compound is mixed with the stated amount of solvents and is diluted with water, containing an emulsifier concentration of 1000 ppm, to the desired concentration. Further test concentrations are prepared by dilution with emulsifier containing water.
Rice plants (Oryza sativa) are sprayed with a preparation of the active ingredient of the desired concentration and the plants are infested with the brown planthopper (Nilaparvata lugens).
After 4 days mortality in % is determined. 100% means all planthoppers have been killed and 0% means none of the planthoppers have been killed.

Experiment [2] concerns green peach aphid (Myzus persicae). Briefly: Myzus persicae spray test. To be noted: foliar, 120 h, application rate 100 g/ha, after 5 days, Chinese cabbage leaf disks, read-out: activity (mortality). The essentials:
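Chinese cabbage leaf disks infested with all aphid instars were sprayed with compound diluted in water containing emulsifier (1000 ppm). Mortality (%) was scored after 5 days, 100% meaning all aphids killed.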

The test system of experiment [3] is fall armyworm larvae (Spodoptera frugiperda). Briefly: Spodoptera frugiperda spray test. To be noted: 168 h, application rate 100 g/ha, after 7 days, maize leaf sections. An outline of the steps:
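Maize leaf sections sprayed with compound diluted in water with 1000 ppm emulsifier, then infested with larvae once dry. Mortality (%) scored after 7 days; 100% = all caterpillars killed.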

The test system of experiment [4] is larvae of the banded cucumber beetle (Diabrotica balteata). Briefly: Diabrotica balteata spray test. The note with it: 168 h, application rate 100 g/ha (=32 μg/well), after 7 days, wheat seeds, read-out: activity (efficacy: seedlings grown). The essentials:
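Wheat seeds germinated 1 day on agar were sprayed with compound diluted in water with 1000 ppm emulsifier, then infested with 10-20 Diabrotica balteata larvae. Efficacy in % scored after 7 days: 100% = seedlings grown as untreated, uninfected control; 0% = no seedlings grown.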

In experiment [5] the test system is adult cat fleas (Ctenocephalides felis). Briefly: Ctenocephalides felis in-vitro contact test, adult cat flea. To be noted: application rate 5 μg/cm^2 (=500 g/ha), after 48 hours, read-out: activity (efficacy: fleas dead or moribund). The essentials: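 Acetone solutions of compound were coated onto inner walls of glass tubes (900 ppm giving 5 μg/cm^2) and dried; 5-10 adult C. felis were then held 48 h at room temperature. Efficacy = % fleas dead or moribund, judged by inability to escape a 45-50° C heating plate within 5 min.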

Experiment [6] concerns adult mosquitoes Aedes aegypti strain MONHEIM. Briefly: Aedes aegypti test (AEDSAE surface treatment & contact assay). To be noted: surface concentration 20 mg/m^2, exposure 30 minutes, 24 hours after contact, read-out: efficacy (mortality). The method, then: Aedes aegypti Test (AEDSAE Surface Treatment & Contact Assay)
(§1) Solvent: Aceton+2000 ppm rapeseed oil methyl ester (RME)
In order to produce a sufficient, active ingredient containing solution it is necessary to solve the test compound in the solvent-mix (acetone at 2 mg/ml/RME 2000 ppm). This solution is pipetted onto a glazed tile and after evaporation of the acetone, adult mosquitoes of the species Aedes aegypti strain MONHEIM are placed onto the dried surface. The exposure time is 30 minutes.
(§2) Mortality in percent (%) is determined 24 hours after contact of the insects to the treated surface. 100% mortality means that all tested insects are dead, whereas 0% means that no insect died.

Experiment [7] relates to adult unfed cat fleas (Ctenocephalides felis). Briefly: Ctenocephalides felis oral test. The note with it: 48 h, read-out: activity (mortality). The procedure:
Ctenocephalides felis—Oral Test
Solvent: dimethyl sulfoxide
To produce a suitable preparation of active compound, 10 mg of active compound are dissolved in 0.5 mL solvent, and the concentrate is diluted with citrated cattle blood to the desired concentration.
Approximately 20 adult unfed cat fleas (Ctenocephalides felis) are placed in a flea chamber whose top and bottom is covered with gauze. A chamber whose bottom is sealed with parafilm, is filled with the blood-compound solution and placed on top of the flea chamber, so that the fleas can suck the blood. The blood chamber is heated to 37° C. whereas the flea chamber is kept at room temperature.
After 2 days mortality in % is determined. 100% means all the fleas have been killed; 0% means none of the fleas have been killed.

The test system of experiment [8] is adult brown dog ticks (Rhipicephalus sanguineus). In words: Rhipicephalus sanguineus in-vitro contact test, adult brown dog ticks. The note with it: application rate 5 μg/cm^2 (=500 g/ha), after 48 hours, read-out: activity (efficacy: ticks dead or moribund). The essentials:
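Acetone solution (900 ppm giving 5 μg/cm²) coated on inner walls of glass tubes; after drying, 5-10 adult ticks added and held at room temperature 48 h. Ticks then placed on 45-50 °C plate ≤5 min; those unable to climb away scored dead/moribund, efficacy as % affected.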

Experiment [9] relates to green peach aphid (Myzus persicae). In words: Myzus persicae oral test. The note with it: 120 h, read-out: activity (mortality). The essentials: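 Compound was dissolved at 1 part by weight in 100 parts acetone, then diluted with water to test concentration and combined with IPL41 insect medium (33%+15% sugar). A mixed aphid population fed on this through a parafilm seal, and mortality (%) was scored after 5 days.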

For experiment [10], the system named is Rhipicephalus (Boophilus) microplus larvae (strain Parkhurst, resistant against synthetic pyrethroids). Briefly: Rhipicephalus (Boophilus) microplus in-vitro contact test, larval cattle tick. The note with it: after 48 hours, read-out: activity (efficacy: larvae dead or moribund); for pest or weed control at 1 µg/cm2, 100 g/ha: application rate 1 μg/cm^2 (=100 g/ha); for pest or weed control at 5 µg/cm2, 500 g/ha: application rate 5 μg/cm^2 (=500 g/ha). The essentials: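 Acetone solutions were coated onto glass tube walls, giving 5 μg/cm^2 at 900 ppm. Once dry, 20–50 pyrethroid-resistant Parkhurst larvae were added per tube and held 48 h at 27 °C and 85% RH. Efficacy was scored by negative geotaxis as the percentage of dead or moribund larvae.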

The test system of experiment [11] is adult engorged female ticks (Rhipicephalus microplus). In words: Rhipicephalus (Boophilus) microplus injection test. The note with it: 168 h, application rate 4 μg/tick, egg deposition after 7 days, read-out: activity (efficacy: infertile eggs). The essentials:
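Five adult engorged female ticks injected into the abdomen with 1 μL compound solution in DMSO, then held in a climate chamber. Fertile egg deposition assessed after 7 days, unclear eggs kept until hatching (about 42 days); efficacy 100% = all eggs infertile, 0% = all fertile.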

The subject of experiment [12] is adult flies Musca domestica strain WHO-N. In words: Musca domestica test (MUSCDO surface treatment & contact assay). The note with it: 24 hours after contact, read-out: efficacy (mortality). The procedure: Musca domestica Test (MUSCDO Surface Treatment & Contact Assay)
as §1
In order to produce a sufficient, active ingredient containing solution it is necessary to solve the test compound in the solvent-mix (acetone at 2 mg/ml/RME 2000 ppm). This solution is pipetted onto a glazed tile and after evaporation of the acetone, adult flies of the species Musca domestica strain WHO-N are placed onto the dried surface. The exposure time is 30 minutes.
as §2

The term mortality denotes the share of the test organisms that died. `C[C@H](NC(=O)c1cc(C(F)(F)F)cc(C(F)(F)F)c1)c1ncnn1-c1ncc(C(=O)N2CCCC2)cn1` [Example I-147] came in with a mortality at 500 g/ha in [1] of 90%. For the same compound, the mortality at 100 g/ha in [2] and in experiment [3] was 100% throughout. For the same compound, the pest or weed control at 32 µg/disc, 100 g/ha in [4] is 100%.

In the case of `Cc1nc([C@H](C)NC(=O)c2cc(Cl)cc(C(F)(F)F)c2)n(-c2ccc(C(=O)N3CC(F)C3)cn2)n1` [Example I-20], the pest or weed control at 5 µg/cm2 in experiment [5] was 100%. In [6], the mortality at 20 mg/m2 lay in the range of 80 to 100%. For the same compound, the mortality at 100 ppm in experiment [7] was 100%. Moreover, the pest or weed control at 5 µg/cm2, 500 g/ha in experiment [8] and in [10] was 100% throughout. Besides, in experiment [9], the mortality at 4 ppm came out at 100%. In addition, the mortality at 100 g/ha stood at 90% in experiment [2] and 100% in [3]. Besides, the pest or weed control at 1 µg/cm2, 100 g/ha in [10] came out at 90%. The pest or weed control at 0.004 mg in [11] came to 100%.

`C[C@H](NC(=O)c1cc(Cl)cc(C(F)(F)F)c1)c1ncnn1-c1ccc(N2CCCC2=O)cn1` [Example I-54] showed a mortality at 100 g/ha in experiment [1] (application rate 100 g/ha) of 100%. The mortality at 4 ppm in experiment [9] was 100%.

Turning to `C[C@@H]1CN(C(=O)c2ccc(-n3ncnc3[C@H](C)NC(=O)c3cc(Cl)cc(C(F)(F)F)c3)nc2)C[C@@H](C)O1` [Example I-40], in [6], the mortality at 20 mg/m2 fell in the range of 80 to 100%. For the same compound, in experiment [7], the mortality at 100 ppm came to 90%. Besides, the pest or weed control at 5 µg/cm2, 500 g/ha in experiment [8] was 100%. Also, the mortality at 4 ppm in experiment [9] stood at 100%. In experiment [2], the mortality at 100 g/ha was determined as 90%. Further, in experiment [10], the pest or weed control at 1 µg/cm2, 100 g/ha was determined as 100% and the pest or weed control at 5 µg/cm2, 500 g/ha was 100%. Besides, the pest or weed control at 32 µg/disc, 100 g/ha in experiment [4] worked out at 100%. For the same compound, the pest or weed control at 0.004 mg in experiment [11] turned out to be 100%.

`C[C@@H]1CN(C(=O)c2cnc(-n3ncnc3[C@H](C)NC(=O)c3cc(OC(F)(F)F)cc(S(C)(=O)=O)c3)nc2)C[C@H](C)O1` [Example I-145] gave a mortality at 500 g/ha in experiment [1] of 100%. In addition, the pest or weed control at 32 µg/disc, 100 g/ha in experiment [4] came out at 100%.

On to `Cc1nc([C@H](C)NC(=O)c2cc(OC(F)(F)F)cc(C3CC3)c2)n(-c2ccc(C(=O)N3C[C@@H](C)O[C@@H](C)C3)cn2)n1` [Example I-115], for which the pest or weed control at 5 µg/cm2 in experiment [5] was found to be 100%. Moreover, in experiment [7], the mortality at 100 ppm is 100%. For the same compound, the pest or weed control at 5 µg/cm2, 500 g/ha in [8] turned out to be 100%. The mortality at 4 ppm in [9] was 100%. Further, in [2], the mortality at 100 g/ha worked out at 90%. Further, in [10], the pest or weed control at 1 µg/cm2, 100 g/ha turned out to be 90% and the pest or weed control at 5 µg/cm2, 500 g/ha was found to be 90%. Also, the mortality at 4 mg/m2 in experiment [12] (surface concentration 4 mg/m^2, exposure 30 minutes) lay in the range of 80 to 100%. In addition, the mortality at 20 mg/m2 in experiment [12] (surface concentration 20 mg/m^2, exposure 30 minutes) lay within 80 to 100%. In addition, the pest or weed control at 32 µg/disc, 100 g/ha in experiment [4] was found to be 80%. The pest or weed control at 0.004 mg in [11] came to 100%.

In the case of `COC1CN(C(=O)c2ccc(-n3nc(C)nc3[C@H](C)NC(=O)c3cc(Cl)cc(C(F)(F)F)c3)nc2)C1` [Example I-24], the pest or weed control at 5 µg/cm2 in [5] stood at 90%. The mortality at 20 mg/m2 in experiment [6] lay within 80 to 100%. In addition, the mortality at 100 ppm in experiment [7] turned out to be 80%. For the same compound, the pest or weed control at 5 µg/cm2, 500 g/ha in experiment [8] and in experiment [10] was 100% throughout. Besides, the mortality at 4 ppm in experiment [9] is 100%. Further, the mortality at 100 g/ha in [2] and in [3] was 100% in each case. Besides, the pest or weed control at 1 µg/cm2, 100 g/ha in experiment [10] amounted to 100%. In addition, the pest or weed control at 0.004 mg in experiment [11] came to 100%.

In the case of `Cc1nc([C@H](C)NC(=O)c2cc(Cl)cc(C(F)(F)F)c2)n(-c2ccc(C(=O)N3CCC3)cn2)n1` [Example I-23], in experiment [5], the pest or weed control at 5 µg/cm2 stood at 100%. The mortality at 20 mg/m2 in [6] fell in the range of 80 to 100%. In addition, the mortality at 100 ppm in [7] is 90%. Besides, the pest or weed control at 5 µg/cm2, 500 g/ha in [8] came to 100%; in experiment [10], 90%. In addition, the mortality at 4 ppm in experiment [9] was found to be 100%. Also, the mortality at 100 g/ha in experiment [2] came out at 90%; in experiment [3] it was 100%. Besides, the pest or weed control at 1 µg/cm2, 100 g/ha in experiment [10] worked out at 90%. Besides, the pest or weed control at 0.004 mg in experiment [11] worked out at 100%.

Values taken from patent US20230058623A1, “NOVEL HETEROARYL-TRIAZOLE COMPOUNDS AS PESTICIDES” (Bayer Aktiengesellschaft, priority 2019, published 2023).
